Experimental findings from ChEMBL document CHEMBL1201862, “PubChem BioAssay data set” (2004) are described below.

The structures appear in SMILES notation. Calls of active or inactive are those of the source. For most assays here, no stated cut-off is given here; in the data, actives have a measured EC50 and inactives only a lower limit.

Experiment [1] can be described thus: Luminescence Cell-Based Dose Retest to Confirm Inhibitors of Cancer Stem Cells. [Related pubchem assays (depositor defined):AID2717, AID2721]. Type of experiment: functional. To be noted: Homo sapiens.
Experiment [2] deals with T1, Heat shock factor protein 1 (Mus musculus, UniProt P38532).
T1 sequence (P38532 whole entry): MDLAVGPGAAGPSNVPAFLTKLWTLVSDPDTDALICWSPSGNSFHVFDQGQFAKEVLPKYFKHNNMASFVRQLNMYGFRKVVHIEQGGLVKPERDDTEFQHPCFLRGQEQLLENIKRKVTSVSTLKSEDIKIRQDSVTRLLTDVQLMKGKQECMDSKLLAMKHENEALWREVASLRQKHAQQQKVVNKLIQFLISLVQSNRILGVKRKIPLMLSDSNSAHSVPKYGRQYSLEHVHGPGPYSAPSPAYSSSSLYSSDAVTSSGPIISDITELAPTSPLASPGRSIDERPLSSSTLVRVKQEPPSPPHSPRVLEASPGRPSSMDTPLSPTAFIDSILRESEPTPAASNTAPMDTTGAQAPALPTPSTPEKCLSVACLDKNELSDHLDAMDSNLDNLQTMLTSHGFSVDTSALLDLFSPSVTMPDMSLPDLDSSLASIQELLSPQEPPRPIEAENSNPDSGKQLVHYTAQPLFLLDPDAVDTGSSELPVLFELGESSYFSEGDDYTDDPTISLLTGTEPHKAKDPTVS
The experiment in a line: HSF1 potentiators in luciferase reporter cells, confirmation, cell-based, NIH3T3, luminescence, dose retest (AID 435004).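 Further: stress induced by proteasome inhibitor MG132 added 30 min after compound; luciferase reporter driven by HSF1 response element in NIH3T3 cells; actives raise luminescence as potentiators of the MG132 stress response.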 Type of experiment: functional.

Experiment [3] concerns the target Large T antigen (Simian virus 40, UniProt P03070). Type of experiment: functional, Betapolyomavirus macacae.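 Further: Confirmatory-stage PubChem screen for compounds that inhibit SV40 T antigen.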
The nature of experiment [4]: inhibitors of intracellular T. cruzi replication, confirmation, NIH3T3 host cells, beta-gal luminescence (AID 2044).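 Further: intracellular parasites grown in NIH/3T3 mouse fibroblasts as host cells; luminescent beta-galactosidase reporter signal from transgenic T. cruzi replicating inside host cells; inhibitors lower the luminescence signal.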 Type of experiment: functional, cell-based.
The nature of experiment [5]: cytotoxicity toward NIH3T3 fibroblasts, dose response, counter-screen, cell-based, ATP luminescence, mouse fibroblasts (AID 2010).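 Further: cells exposed to compound for about 90 hours before reading.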 Type of experiment: functional.
The nature of experiment [6]: cells. Type of experiment: functional.
Experiment [7] in a line: Luminescence Cell-Based Dose Confirmation HTS to Identify Activators of 5'UTR Stem-Loop Driven Alpha-Synuclein mRNA Translation in H4 Neuroglioblastoma Cells. [Related pubchem assays: 1829 (Project Summary), 1814 (Primary HTS)]. Type of experiment: functional.
A short description of experiment [8]: Luminescence Cell-Based Dose Response HTS to Identify Activators of Luciferase Translation or Activity in H4 […] Cells. [Related pubchem assays: 1829 (Project Summary), 1814 (Primary HTS)]. Type of experiment: functional.
For experiment [9], the system named is H4. The experiment in a line: Luminescence Cell-Based Dose Response HTS to Identify Activators of 5'UTR Stem-Loop Driven Prion Protein mRNA Translation in H4 Neuroglioblastoma Cells. [Related pubchem assays: 1829 (Project Summary), 1814 (Primary HTS)]. As to conditions: Homo sapiens. Type of experiment: functional.
The nature of experiment [10]: NIH-3T3 fibroblast cytotoxicity, dose response, cytotoxicity control, cell-based, fluorescence, Alamar Blue, secondary assay (AID 2327).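 Further: NIH-3T3 mouse fibroblasts cultured with fluconazole at 8 µg/mL.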 Type of experiment: functional.
The nature of experiment [11]: C. albicans growth with fluconazole, confirmation, fluorescence, retest (AID 2467). Type of experiment: functional, cell-based.
The target in experiment [12] is T1, Heat shock factor protein 1. The experiment in a line: inhibition of MG132-induced HSE-luciferase signal, confirmation, cell-based, NIH3T3, luminescence, dose retest (AID 2382).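 Further: NIH3T3 fibroblasts with HSF1-driven luciferase reporter stressed by proteasome inhibitor MG132; luminescence from HSF1-driven luciferase expression after 8 hours of MG132 stress.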 Type of experiment: functional.
Experiment [13] has as its system Streptococcus sp. 'group A'. The experiment in a line: growth inhibition of control SK(-) GAS strain, dose response, counter-screen for streptokinase expression inhibitor project, luminescence, kanamycin, BacTiterGlo, confirmation (AID 1900). Type of experiment: functional, organism-based.
The target of experiment [14] is T2, Streptokinase A (Streptococcus pyogenes serotype M1, UniProt P10520).
T2 sequence (P10520 whole entry): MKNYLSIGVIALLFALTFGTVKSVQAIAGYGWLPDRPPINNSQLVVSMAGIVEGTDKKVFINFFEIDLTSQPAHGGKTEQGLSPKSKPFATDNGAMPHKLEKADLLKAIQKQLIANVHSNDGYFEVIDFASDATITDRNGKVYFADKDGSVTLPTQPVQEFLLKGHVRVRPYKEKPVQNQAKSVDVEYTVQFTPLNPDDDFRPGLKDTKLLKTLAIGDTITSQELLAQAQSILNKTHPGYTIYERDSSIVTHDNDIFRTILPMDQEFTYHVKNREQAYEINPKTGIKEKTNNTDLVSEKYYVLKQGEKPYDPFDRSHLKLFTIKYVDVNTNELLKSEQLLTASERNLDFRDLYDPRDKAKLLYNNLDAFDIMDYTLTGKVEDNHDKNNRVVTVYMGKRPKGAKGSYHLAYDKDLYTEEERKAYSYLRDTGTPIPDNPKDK
The experiment in a line: S. pyogenes streptokinase expression inhibitors, potency, dose response, plasminogen activation absorbance, OD405 (AID 1914).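 Further: secreted streptokinase activity via plasminogen activation per viability signal from cell pellet.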 Type of experiment: functional, Streptococcus pyogenes M1 GAS.

Experiment [15] has as its system Streptococcus. The experiment in a line: Group A Streptococcus viability loss, dose response, counter-screen for streptokinase expression inhibitor project, luminescence, BacTiterGlo (AID 1915).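 Further: potency for reduction of bacterial viability or growth.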 Type of experiment: functional, organism-based.
For experiment [16], the target named is FAD-linked sulfhydryl oxidase ALR (Homo sapiens, UniProt P55789). Nature of the experiment: inhibitors of human ALR sulfhydryl oxidase, dose response, biochemical, H2O2 detection, luminescence, cherry-pick (AID 493248).
Experiment [17] deals with INS1. The experiment in a line: beta cell apoptosis inhibitors, cytokine rescue, dose response, luminescence, retest (AID 449756).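 Further: cell death triggered by IL-1 beta plus TNF-alpha plus IFN-gamma mixture; protective hits raise ATP signal compared with cytokine alone wells.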 Type of experiment: functional, cell-based. As to conditions: Rattus norvegicus.
Experiment [18] has as its target T3, Rac GTPase-activating protein 1 (Homo sapiens, UniProt Q9H0H5).
T3 sequence (Q9H0H5 whole entry): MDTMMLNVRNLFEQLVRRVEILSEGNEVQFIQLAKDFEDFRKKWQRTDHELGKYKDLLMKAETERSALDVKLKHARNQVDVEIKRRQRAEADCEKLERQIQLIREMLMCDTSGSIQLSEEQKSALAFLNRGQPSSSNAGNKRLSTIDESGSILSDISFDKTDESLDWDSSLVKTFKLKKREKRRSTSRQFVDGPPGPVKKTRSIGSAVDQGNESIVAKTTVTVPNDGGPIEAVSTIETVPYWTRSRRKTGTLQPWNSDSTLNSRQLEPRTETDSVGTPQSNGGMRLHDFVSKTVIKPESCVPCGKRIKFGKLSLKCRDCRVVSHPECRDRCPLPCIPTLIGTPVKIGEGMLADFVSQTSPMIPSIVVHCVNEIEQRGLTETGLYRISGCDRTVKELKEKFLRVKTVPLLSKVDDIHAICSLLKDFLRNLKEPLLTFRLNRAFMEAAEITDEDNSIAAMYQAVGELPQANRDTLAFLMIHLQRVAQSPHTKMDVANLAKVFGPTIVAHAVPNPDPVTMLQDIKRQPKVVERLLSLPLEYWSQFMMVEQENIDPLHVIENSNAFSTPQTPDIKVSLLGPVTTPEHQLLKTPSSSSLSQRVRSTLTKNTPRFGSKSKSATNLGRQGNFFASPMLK
The experiment in a line: MgcRacGAP GTPase-activating activity inhibitors, confirmation, biochemical, ADP Hunter fluorescence, primary and confirmatory (AID 624330). Type of experiment: functional.

Experiment [19] in a line: growth suppression of beta-catenin-knockout colon cells, dose response, cell-based, HCT116, human colon tumor (AID 1045).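 Further: HCT116 colon tumor cells with beta catenin knocked out; cells exposed to compound for 60 hours.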 Type of experiment: functional.
Experiment [20] in a line: P. falciparum Dd2 growth inhibitors, dose response, SYBR Green, cherry-picked samples (AID 1159567). Type of experiment: functional, cell-based.

Sequence of Large T antigen (P03070 whole entry): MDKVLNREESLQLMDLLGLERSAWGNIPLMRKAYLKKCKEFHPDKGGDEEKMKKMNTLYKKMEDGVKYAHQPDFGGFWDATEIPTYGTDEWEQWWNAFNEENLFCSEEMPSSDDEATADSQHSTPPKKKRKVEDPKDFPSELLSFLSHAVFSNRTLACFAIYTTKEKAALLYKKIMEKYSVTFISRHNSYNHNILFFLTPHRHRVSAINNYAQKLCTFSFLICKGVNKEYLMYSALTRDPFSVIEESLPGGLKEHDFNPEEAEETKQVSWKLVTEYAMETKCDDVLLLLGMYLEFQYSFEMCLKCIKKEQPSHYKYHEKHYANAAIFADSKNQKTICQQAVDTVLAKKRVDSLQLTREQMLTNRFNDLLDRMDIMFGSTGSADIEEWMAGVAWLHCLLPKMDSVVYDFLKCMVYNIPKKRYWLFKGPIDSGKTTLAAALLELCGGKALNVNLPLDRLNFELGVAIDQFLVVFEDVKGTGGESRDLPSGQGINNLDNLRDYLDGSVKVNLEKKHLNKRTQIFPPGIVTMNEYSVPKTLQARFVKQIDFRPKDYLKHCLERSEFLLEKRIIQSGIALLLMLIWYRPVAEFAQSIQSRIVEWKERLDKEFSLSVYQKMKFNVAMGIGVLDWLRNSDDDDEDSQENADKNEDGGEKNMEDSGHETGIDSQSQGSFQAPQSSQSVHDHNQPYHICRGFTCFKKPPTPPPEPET
Sequence of FAD-linked sulfhydryl oxidase ALR (P55789 whole entry): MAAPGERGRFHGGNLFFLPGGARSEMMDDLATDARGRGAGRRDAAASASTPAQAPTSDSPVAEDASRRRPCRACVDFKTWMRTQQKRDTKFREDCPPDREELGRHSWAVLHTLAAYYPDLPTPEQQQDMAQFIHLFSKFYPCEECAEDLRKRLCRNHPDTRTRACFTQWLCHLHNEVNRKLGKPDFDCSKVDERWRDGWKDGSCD

`O=C(c1ccco1)c1nnn(Cc2ccccc2)c1-c1ccccc1`: the AC50 in experiment [1] was 3.72 µM (active). For the same compound, in [2], the EC50 was > 260 µM (inactive).
For the compound `CN(C)c1ccc(Nc2cc(Cl)ncn2)cc1`, the IC50 in experiment [3] is 7.46 µM (active).
For the compound `CCOC(=O)CNc1c(-c2ccc(O)cc2)nc2ccc(Cl)cn12`, in [3], the IC50 is 15.9 µM (active).
Take `COc1ccc2c(c1)sc(=N)n2C`: the EC50 in experiment [4] is 0.122 µM (active); in [5] it was > 60 µM (inconclusive). Besides, the IC50 in experiment [6] is 30 µM (active).
For `Oc1ccc(-c2csc(-c3c[nH]c4ccccc34)n2)c(O)c1`, the EC50 is 0.115 µM (active) in experiment [7], 4.35 µM (inconclusive) in [8] and 10.2 µM (active) in experiment [9].
As for `CCCN1CCN(C(=O)c2ccc(Sc3ccc(C)cc3)c(NC(C)=O)c2)CC1`, the EC50 in [2] was > 260 µM (inactive).
On to `O=C(c1ccccc1)c1c[nH]c(C(=O)NNc2ccccc2)c1`, for which the EC50 is 28.3 µM (active) in experiment [10], > 38 µM (not active) in [11], 1.71 µM (active) in [4] and 7.46 µM (active) in experiment [5]. Besides, the AC50 in experiment [1] is 1.09 µM (active).
For the compound `Cc1ccc(NC(=O)CCS(=O)(=O)c2ccc3c(c2)NC(=O)C(C)S3)nc1` (centres undefined), the EC50 in experiment [2] was > 260 µM (inactive).
In the case of `O=C(Cc1ccc(O)cc1)NC1CCCCCC1`, the EC50 was 47.4 µM (active) in experiment [7], 52 µM (active) in experiment [8], 16.8 µM (active) in [9] and > 195 µM (not active) in experiment [12].
As for `O=C1c2cccc3cccc(c23)C(=O)N1OS(=O)(=O)c1ccccc1`, in experiment [2], the EC50 is > 260 µM (inactive).
In the case of `Cc1ccc(C(=O)CC(=O)c2ccccc2C)c(O)c1`, the EC50 in experiment [10] is > 150 µM (inactive); in [13] it was 6.61 µM (active); in experiment [14], > 150 µM (not active); in experiment [11], > 38 µM (not active); in [15], 9.83 µM (active).
`CCN(CC)c1ccc(C(=O)OCC(=O)c2ccco2)cc1`: the results for the EC50 in experiment [7], in [8] and in [9] were 14.1 µM (active), 94 µM (active) and 57.4 µM (active), respectively.
Turning to `O=C(CCCN1C(=O)c2cccc3cccc(c23)C1=O)Nc1ccon1`, the EC50 in experiment [2] is > 260 µM (inactive).
Consider `CCCc1cc(O)nc(SCC(=O)Nc2ccc(C)cc2)n1`, for which the EC50 in experiment [2] is > 260 µM (inactive).
`COc1cccc(-c2nnc(SCc3cccnc3)o2)c1`: the figures for the concentration for a half-maximal effect (EC50) in experiment [7], in experiment [8] and in experiment [9] were 43.2 µM (active), 33.1 µM (active) and 12.2 µM (active), respectively.
For the compound `Cc1csc(Nc2ccccc2)[n+]1-c1ccccc1`, the figures for the concentration for a half-maximal effect (EC50) in experiment [7], in experiment [8] and in [9] were > 120 µM (not active), > 30 µM (not active) and 6.74 µM (active), respectively. Moreover, in [16], the AC50 is 1.14 µM (active).
On to `O=C(CCN1CCCCCC1)c1ccccc1`, for which the concentration at half-maximal activity (AC50) in experiment [16] was 5.85 µM (active). Moreover, the half-maximal inhibitory concentration (IC50) in experiment [6] was 41 µM (active).
As for `O=C(NCCc1c[nH]c2ccccc12)c1ccc(Cl)cc1`, the EC50 is 21.9 µM (active) in [7], > 120 µM (not active) in [8] and > 120 µM (not active) in [9].
As for `CNc1nnc(Sc2ncccc2[N+](=O)[O-])s1`, the IC50 in experiment [6] was 7.5 µM (active).
For `O=C(N/N=C/c1ccc(O)cc1O)/C(=C/c1ccccc1)CCO`, the IC50 in [3] is 19.4 µM (active). Moreover, the AC50 was 6.81 µM (active) in experiment [1] and 2.11 µM (active) in experiment [17].
`COc1cc(/C=N/NC(=O)Cn2nnc3ccccc32)ccc1O`: the figures for the IC50 in experiment [3] and in experiment [18] were 6.59 µM (active) and 24.3 µM (active), respectively.
As for `CC(/C=N/Nc1n[nH]c2c3ccccc3nc-2n1)=C\c1ccco1`, the EC50 was 11 µM (active) in [7], 17.6 µM (active) in [8] and 15.5 µM (active) in [9].
For `CCOc1cc(/C=N/O)ccc1OS(=O)(=O)c1ccc(C)cc1`, the EC50 in experiment [19] was 312 µM (active).
On to `O=C(CN1c2ccccc2Sc2ccccc21)N/N=C/c1ccc(Cl)cc1`, for which the EC50 in experiment [2] was > 260 µM (inactive).
Regarding `COc1cc(/C=N/NC(=O)CSc2ccccn2)ccc1O`, the IC50 in experiment [3] was 9.69 µM (active).
Take `COc1cc(/C=N/NC(=O)CNc2nnc(O)nc2O)ccc1O`: the IC50 was 8.93 µM (active) in [3] and 35.9 µM (active) in experiment [18].
As for `COc1ccc2c3c([nH]c2c1)[C@H](CO)N(Cc1ccc(F)cc1)CC31CCN(Cc2ccccn2)CC1`, in [20], the AC50 was 2.95 µM (active).
Turning to `CCC(=O)N1CC2(C1)CN(Cc1cc(F)ccc1F)[C@@H](CO)c1[nH]c3cc(OC)ccc3c12`, the AC50 in [20] was 7.9 µM (active).
Regarding `C/C=C/c1ccc2c(c1)[C@H]1[C@H](CCN1C(=O)C1CCCC1)[C@@H](CO)N2`, the AC50 in [20] was 4.97 µM (active).
For `C/C=C/c1ccc([C@H]2[C@@H](CO)N(CC3CCCC3)C23CN(C(=O)CC2CC2)C3)cc1`, in [20], the AC50 is 4.55 µM (active).
Still for that read-out and setting: then `N#Cc1ccc(-c2ccc3c(c2)[C@H]2[C@H](CCN2C(=O)C2CCCC2)[C@H](CO)N3)cc1`, with 4.55 µM (active).
For `O=C1C2CCCCN2C(=O)N1CCCN1CCN(c2ccc(F)cc2)CC1` (centres undefined), the EC50 in experiment [2] is > 260 µM (inactive).
